Test [1] deals with Candida. Description: Minimum inhibitory concentration against Candida krusei ATCC 6528 evaluated by in vitro agar diffusion and micro-broth dilution assay. The format is functional, Candida kruisii. (In agar diffusion tests the substance spreads into inoculated agar from a disc or well.)
The subject of the next test is Candida parapsilosis. Description: Minimum inhibitory concentration against Candida parapsilosis ATCC 22019 evaluated by in vitro agar diffusion and micro-broth dilution assay. The format is functional. Particulars: Lodderomyces parapsilosis.
The subject of the next test is Aspergillus fumigatus. Description: Minimum inhibitory concentration against Aspergillus fumigatus LSI-11 evaluated by in vitro agar diffusion and microbroth dilution assay. The format is functional.
Test [2] has as its system Candida albicans. Kind of test: Minimum inhibitory concentration against Candida albicans A261 evaluated by in vitro agar diffusion and micro-broth dilution assay. It is filed as functional.
Test [3] deals with Candida. Kind of test: Minimum inhibitory concentration against Candida krusei 1766-1 evaluated by in vitro agar diffusion and micro-broth dilution assay. It is filed as functional, Candida kruisii.
The subject of test [4] is Candida albicans. Kind of test: Minimum inhibitory concentration against Candida albicans V-01-191 evaluated by in vitro agar diffusion and microbroth dilution assay. It is filed as functional.
In another test the test system is Nakaseomyces glabratus. Kind of test: Minimum inhibitory concentration against Candida glabrata ATCC 90030 evaluated by in vitro agar diffusion and microbroth dilution assay. It is filed as functional.
Another test concerns Candida tropicalis. Description: Minimum inhibitory concentration against Candida tropicalis ATCC750 evaluated by in vitro agar diffusion and microbroth dilution assay. The format is functional.

Values after ≈ are worked out from the molar mass of the structure shown.

What is called MIC is the lowest concentration found to suppress growth. In the case of `Cn1c(-c2cc(F)c(NC(=N)N)cc2F)ccc1-c1cc(F)c(NC(=N)N)cc1F`, the MIC in the test on Candida [1], with Candida parapsilosis, with Aspergillus fumigatus, against Candida albicans [2], in the test with Candida [3] and in the test with Candida albicans [4] was over 16 µg/mL throughout. In addition, the MIC in the test on Nakaseomyces glabratus and against Candida tropicalis was over 16 µg/mL throughout.
As to `COc1cc(NC(=N)N)ccc1-c1ccc(-c2ccc(NC(=N)N)cc2OC)n1C`, the MIC in the test on Candida [1], against Candida parapsilosis, against Aspergillus fumigatus, with Candida albicans [2], with Candida [3] and against Candida albicans [4] was 16 µg/mL (≈ 39.3 µM) in each case. Besides, the MIC against Nakaseomyces glabratus and with Candida tropicalis was 16 µg/mL (≈ 39.3 µM) in each case.
For the compound `Cn1c(-c2ccc(N=C(N)N)c(C(F)(F)F)c2)ccc1-c1ccc(N=C(N)N)c(C(F)(F)F)c1`, the MIC with Candida [1], in the test with Candida parapsilosis, in the test with Aspergillus fumigatus, in the test on Candida albicans [2], against Candida [3] and with Candida albicans [4] was 16 µg/mL (≈ 33.1 µM) throughout. For the same compound, the MIC was determined as 16 µg/mL (≈ 33.1 µM) in the test on Nakaseomyces glabratus and 4 µg/mL (≈ 8.27 µM) against Candida tropicalis.
For the compound `Cn1c(-c2ccc(NC(=N)N)cc2)ccc1-c1ccc(NC(=N)N)cc1`, the minimum inhibitory concentration (MIC) against Candida [1], against Candida parapsilosis, against Aspergillus fumigatus, with Candida albicans [2], with Candida [3] and against Candida albicans [4] was over 16 µg/mL in each case. Besides, the MIC in the test on Nakaseomyces glabratus and against Candida tropicalis was over 16 µg/mL each time.
As for `Cc1cc(NC(=N)N)ccc1-c1ccc(-c2ccc(NC(=N)N)cc2C)n1C`, the MIC with Candida [1] was determined as 4 µg/mL (≈ 10.7 µM); against Candida parapsilosis, 2 µg/mL (≈ 5.33 µM); against Aspergillus fumigatus it was 16 µg/mL (≈ 42.6 µM); against Candida albicans [2], 2 µg/mL (≈ 5.33 µM); with Candida [3] it was 8 µg/mL (≈ 21.3 µM); in the test on Candida albicans [4] it was 2 µg/mL (≈ 5.33 µM). The minimal inhibitory concentration (MIC) was found to be 2 µg/mL (≈ 5.33 µM) in the test on Nakaseomyces glabratus and 1 µg/mL (≈ 2.66 µM) against Candida tropicalis.
With `Cn1c(-c2ccc(NC(=N)N)cc2Cl)ccc1-c1ccc(NC(=N)N)cc1Cl`, the MIC with Candida [1] is 16 µg/mL (≈ 38.4 µM); with Candida parapsilosis it was 16 µg/mL (≈ 38.4 µM); with Aspergillus fumigatus, over 16 µg/mL; in the test with Candida albicans [2], 8 µg/mL (≈ 19.2 µM); against Candida [3], 16 µg/mL (≈ 38.4 µM); against Candida albicans [4], 8 µg/mL (≈ 19.2 µM). The MIC turned out to be 16 µg/mL (≈ 38.4 µM) with Nakaseomyces glabratus and 4 µg/mL (≈ 9.61 µM) against Candida tropicalis.
`OC(Cn1cncn1)(Cn1cncn1)c1ccc(F)cc1F` [FLUCONAZOLE]: the MIC in the test on Candida [1] is over 8 µg/mL; with Candida parapsilosis it was 8 µg/mL (≈ 26.1 µM); against Aspergillus fumigatus, at least 64 µg/mL; against Candida albicans [2] it was 0.25 µg/mL (≈ 0.816 µM); with Candida [3], 32 µg/mL (≈ 104 µM); with Candida albicans [4], 6 µg/mL (≈ 19.6 µM). Moreover, the results for the MIC in the test on Nakaseomyces glabratus and in the test with Candida tropicalis were over 8 µg/mL and 8 µg/mL (≈ 26.1 µM), respectively.
For `CCC(C)n1ncn(-c2ccc(N3CCN(c4ccc(OC[C@H]5CO[C@](Cn6cncn6)(c6ccc(Cl)cc6Cl)O5)cc4)CC3)cc2)c1=O` (some centres undefined) [ITRACONAZOLE], the MIC with Candida [1] was 0.25 µg/mL (≈ 0.354 µM); against Candida parapsilosis, 0.25 µg/mL (≈ 0.354 µM); against Aspergillus fumigatus it was 0.12 µg/mL (≈ 0.17 µM); against Candida albicans [2], under 0.03 µg/mL; with Candida [3], under 0.03 µg/mL; in the test with Candida albicans [4], 0.25 µg/mL (≈ 0.354 µM). Also, the figures for the MIC against Nakaseomyces glabratus and in the test on Candida tropicalis were 0.25 µg/mL (≈ 0.354 µM) and 0.12 µg/mL (≈ 0.17 µM), respectively.

The values above are taken from ChEMBL document CHEMBL1142759, “Synthesis of some diguanidino 1-methyl-2,5-diaryl-1H-pyrroles as antifungal agents” (2005).
